Paper PMC6747315, “Formation of α-Farnesene in Tea (Camellia sinensis) Leaves Induced by Herbivore-Derived Wounding and Its Effect on Neighboring Tea Plants” (International Journal of Molecular Sciences, 2019)

Target: T1, CsAFS (α-farnesene synthase) (Camellia sinensis, UniProt A0A3G3IRF8)
T1 construct: full-length ORF cloned in pET32a (EcoRV/SalI); cloning primers encode N-terminus MDCSKGML and C-terminus LIEPLKIN
T1 sequence (A0A3G3IRF8 1-560): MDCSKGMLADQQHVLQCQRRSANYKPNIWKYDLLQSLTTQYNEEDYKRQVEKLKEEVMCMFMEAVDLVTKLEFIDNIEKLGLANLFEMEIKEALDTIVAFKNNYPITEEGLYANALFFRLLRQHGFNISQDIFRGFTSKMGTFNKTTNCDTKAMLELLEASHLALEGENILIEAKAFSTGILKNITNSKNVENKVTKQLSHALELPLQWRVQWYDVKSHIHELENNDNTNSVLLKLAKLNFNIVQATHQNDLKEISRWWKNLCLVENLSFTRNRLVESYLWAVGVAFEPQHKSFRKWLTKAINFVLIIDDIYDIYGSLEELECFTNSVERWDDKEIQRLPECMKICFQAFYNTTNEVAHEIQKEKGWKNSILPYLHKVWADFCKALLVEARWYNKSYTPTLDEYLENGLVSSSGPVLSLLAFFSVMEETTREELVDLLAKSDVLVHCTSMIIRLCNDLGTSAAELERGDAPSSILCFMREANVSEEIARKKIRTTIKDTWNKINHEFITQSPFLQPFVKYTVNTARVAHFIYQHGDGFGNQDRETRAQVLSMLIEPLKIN
Assay: SPME GC-MS product analysis
Assay type: biochemical
Settings: 15 µg protein in 1 mL, 10 mM MgCl2, 1 mM MnCl2, 500 mM KCl, pH 7.0, 30 °C, 1 h

SMILES | SPME GC-MS product analysis (product β-ocimene) | SPME GC-MS product analysis (product α-farnesene)
CC(C)=CCC/C(C)=C/COP(=O)(O)OP(=O)(O)O [geranyl diphosphate] | with geranyl diphosphate (GPP) as substrate, the CsAFS enzyme produced only β-ocimene | –
CC(C)=CCC/C(C)=C/CC/C(C)=C/COP(=O)(O)OP(=O)(O)O [farnesyl diphosphate] | – | recombinant protein CsAFS converted substrate farnesyl diphosphate (FPP) into α-farnesene as the final product
